Source: PubChem BioAssay (NCI)
Several values for one entry are separate records, joined by “and”; a condition that tells them apart may be missing. Identical values can stand only once.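 Briefly, cells in 96-well plates were exposed to five compound concentrations for 48 h, and endpoints were estimated by linear interpolation. GI50 marks 50% less growth. At the TGI there is no net growth.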

Assays:
Assay in all cases: DTP human tumour cell line panel, 48 h
[1] = system: RPMI-8226 leukemia
[2] = system: NCI-H460 lung
[3] = system: ACHN renal
[4] = system: HT29 colon
[5] = system: PC-3 prostate
[6] = system: OVCAR-4 ovarian
[7] = system: MDA-MB-435
[8] = system: T-47D breast
[9] = system: NCI-H23 lung
[10] = system: NCI-H522 lung

O=C(CN1CCN(c2ncccn2)CC1)Nc1ccc(Cl)cc1C(=O)c1ccccc1Cl
GI50 [1]: 9.51 µM | TGI [1]: > 100 µM | GI50 [2]: > 100000 nM | TGI [2]: > 100 µM | GI50 [3]: > 100000 nM | TGI [3]: > 100 µM | GI50 [4]: 63600 nM | TGI [4]: > 100 µM | GI50 [5]: 9470 nM | TGI [5]: > 100 µM | GI50 [6]: 43900 nM | TGI [6]: > 100 µM | GI50 [7]: > 100000 nM | TGI [7]: > 100 µM | GI50 [8]: 30800 nM | TGI [8]: > 100 µM | GI50 [9]: > 100000 nM | TGI [9]: > 100 µM | GI50 [10]: 46600 nM | TGI [10]: > 100 µM

Nc1nc(SCc2ccccn2)c2ncn(C3CCCC3)c2n1
TGI [1]: > 100 µM | TGI [2]: > 100 µM | TGI [3]: > 100 µM | TGI [4]: > 100 µM | TGI [5]: > 100 µM | TGI [6]: > 100 µM | TGI [7]: > 100 µM | TGI [8]: > 100 µM | TGI [9]: > 100 µM | TGI [10]: > 100 µM

C[C@@H]1C[C@@H](O)[C@]2(O)O[C@@H]3C[C@@]4(C=O)[C@@H](CC[C@@H]5[C@@H]4CC[C@]4(C)[C@@H](C6=CC(=O)OC6)CC[C@]54O)C[C@H]3O[C@@H]2O1
TGI [1]: 0.0752 µM | GI50 [2]: 22.9 nM | TGI [2]: 0.0195 µM and 0.0817 µM and 0.0192 µM | GI50 [3]: 6.92 nM and 5 nM | GI50 [4]: 53.4 nM and 14.1 nM | TGI [4]: 0.0734 µM and 0.198 µM and 0.0745 µM | TGI [5]: 0.518 µM | GI50 [6]: 5.6 nM | TGI [6]: 0.0531 µM and 0.0128 µM | TGI [7]: 0.157 µM | TGI [8]: 0.89 µM | GI50 [9]: 28.2 nM and 5 nM | GI50 [10]: 7.51 nM

ClCc1cccc(Cn2cnc3c(Cl)ncnc32)c1
GI50 [1]: 3.82 µM | TGI [1]: 16.1 µM | GI50 [2]: 11700 nM | TGI [2]: 36 µM | GI50 [3]: 2080 nM | TGI [3]: 4.09 µM | GI50 [4]: 3250 nM | TGI [4]: > 100 µM | GI50 [5]: 4180 nM | TGI [5]: 18.3 µM | GI50 [6]: 2350 nM | TGI [6]: 5.69 µM | GI50 [7]: 1690 nM | TGI [7]: 3.29 µM | GI50 [8]: 3020 nM | TGI [8]: 12.3 µM | GI50 [9]: 1920 nM | TGI [9]: 4.07 µM | GI50 [10]: 18600 nM | TGI [10]: 65.4 µM

COc1cccc(C2CC(C)(N3CCCC3)Oc3cc4c(cc32)OCO4)c1O (configuration not stated)
TGI [1]: > 81 µM | TGI [2]: > 82.1 µM | TGI [3]: > 100 µM | TGI [4]: 45.3 µM | TGI [5]: > 76.1 µM | TGI [6]: > 100 µM | TGI [7]: 18.4 µM | TGI [8]: > 100 µM | TGI [9]: 71 µM | TGI [10]: 47.2 µM

N#CCC1COc2ccccc2O1 (configuration not stated)
TGI [1]: > 10 µM | TGI [3]: > 10 µM | TGI [4]: > 10 µM | TGI [5]: > 10 µM | TGI [6]: > 10 µM | TGI [7]: > 10 µM | TGI [8]: > 10 µM | TGI [9]: > 10 µM | TGI [10]: > 10 µM

COc1cc(C2CC(c3ccc(C)cc3)=NN2C=O)ccc1Oc1ccnc2cc(Cl)ccc12 (configuration not stated)
GI50 [1]: > 50 µM | TGI [1]: > 50 µM | GI50 [2]: > 50000 nM | TGI [2]: > 50 µM | GI50 [3]: 4390 nM | TGI [3]: > 50 µM | GI50 [4]: > 50000 nM | TGI [4]: > 50 µM | GI50 [5]: > 50000 nM | TGI [5]: > 50 µM | GI50 [7]: > 50000 nM | TGI [7]: > 50 µM | GI50 [8]: 2900 nM | TGI [8]: 23.5 µM | GI50 [9]: 6930 nM | TGI [9]: > 50 µM | GI50 [10]: 2720 nM | TGI [10]: > 50 µM

COc1cc(-c2nn(-c3ccc(NC(=O)c4ccc(Cl)c(Cl)c4)cc3)cc2-c2ccncc2)ccc1Cl
GI50 [1]: 3.03 µM | TGI [1]: 14.1 µM | GI50 [2]: 4170 nM | TGI [2]: > 100 µM | GI50 [3]: 8060 nM | TGI [3]: > 100 µM | GI50 [4]: 2900 nM | TGI [4]: > 100 µM | GI50 [5]: 6280 nM | TGI [5]: > 100 µM | GI50 [6]: 23400 nM | TGI [6]: > 100 µM | GI50 [7]: 7140 nM | TGI [7]: > 100 µM | GI50 [8]: 3760 nM | TGI [8]: > 100 µM | GI50 [9]: 38400 nM | TGI [9]: > 100 µM | GI50 [10]: > 100000 nM | TGI [10]: > 100 µM

COc1ccc(C(=O)/C(Br)=C/C(=O)O)cc1
GI50 [1]: 7.57 µM | TGI [1]: 110 µM and 78.6 µM | GI50 [2]: 14400 nM | TGI [2]: 300 µM and 72 µM | GI50 [3]: 78800 nM | TGI [3]: 293 µM and 235 µM | GI50 [4]: 59400 nM | TGI [4]: 658 µM and 491 µM | GI50 [5]: 74500 nM | TGI [5]: 159 µM and 257 µM | TGI [6]: 125 µM and 120 µM | GI50 [7]: 8180 nM | TGI [7]: 111 µM and 33.5 µM | GI50 [8]: 15700 nM | TGI [8]: 149 µM and 260 µM | GI50 [9]: 21300 nM | TGI [9]: 112 µM and 205 µM | GI50 [10]: 13300 nM | TGI [10]: 50.4 µM and 22.9 µM

C=CCn1c2c(c3ccccc3c1=O)C(=O)c1ccccc1-2
TGI [1]: > 100 µM | TGI [2]: > 100 µM | TGI [3]: > 100 µM | TGI [4]: > 100 µM | TGI [5]: > 100 µM | TGI [6]: > 100 µM | TGI [7]: > 100 µM | TGI [8]: > 100 µM | TGI [9]: > 100 µM | TGI [10]: > 100 µM

Cc1ccc(-[n+]2c3cc(N)c(C)cc3nc3cc(C)c(Nc4ccccc4)cc32)cc1
GI50 [3]: 107 nM | TGI [3]: 1.17 µM | GI50 [4]: 37.7 nM | TGI [4]: 0.345 µM | GI50 [5]: 174 nM | TGI [5]: 1.77 µM | GI50 [6]: 333 nM | TGI [6]: 1.59 µM | GI50 [7]: 81.4 nM | TGI [7]: 0.358 µM | GI50 [8]: 88.6 nM | TGI [8]: 1.02 µM | GI50 [10]: 249 nM | TGI [10]: 0.788 µM

COc1ccc2nc(N/N=C(\C)c3ccccn3)cc(C)c2c1
GI50 [1]: 0.369 µM | TGI [1]: 1.36 µM | GI50 [2]: 118 nM | TGI [2]: 1.13 µM | GI50 [3]: 220 nM | TGI [3]: 1.21 µM | GI50 [4]: 116 nM | GI50 [5]: 433 nM | TGI [5]: 5.68 µM | GI50 [6]: 156 nM | TGI [6]: 2.57 µM | GI50 [7]: 408 nM | TGI [7]: 1.69 µM | GI50 [8]: 76.6 nM | TGI [8]: 1.61 µM | GI50 [9]: 440 nM | TGI [9]: 4.46 µM | GI50 [10]: 292 nM | TGI [10]: 1.88 µM

CN1CC[C@@H](c2c(O)cc(O)c3c(=O)cc(-c4ccccc4Cl)oc23)[C@@H](O)C1
GI50 [1]: 0.0753 µM and 0.0274 µM | TGI [1]: 0.233 µM and 1.36 µM | GI50 [2]: 68.1 nM and 69.3 nM | GI50 [3]: 34.6 nM | TGI [3]: 15.6 µM | GI50 [4]: 178 nM | TGI [4]: 24.8 µM | GI50 [5]: 65.5 nM and 73.5 nM | GI50 [6]: 170 nM | TGI [6]: 0.68 µM and 3.61 µM | GI50 [7]: 88.6 nM and 74.4 nM | TGI [7]: 0.261 µM and 0.22 µM and 0.342 µM | GI50 [8]: 82.4 nM and 66.9 nM and 34.2 nM | GI50 [9]: 90.8 nM and 103 nM and 45.3 nM | TGI [9]: 0.23 µM and 0.301 µM and 0.189 µM | TGI [10]: 0.222 µM and 0.319 µM

O=C1NCc2ccc3c(-c4cccc(Cl)c4)c[nH]c3c21
GI50 [1]: 0.257 µM | TGI [1]: 49 µM | GI50 [2]: 201 nM | TGI [2]: > 38.2 µM | GI50 [3]: 333 nM | TGI [3]: > 50 µM | GI50 [4]: 180 nM | TGI [4]: > 50 µM | GI50 [5]: 281 nM | TGI [5]: > 50 µM | GI50 [6]: 1950 nM | TGI [6]: > 50 µM | GI50 [7]: 60.4 nM | TGI [7]: 0.239 µM | GI50 [8]: 277 nM | TGI [8]: > 50 µM | GI50 [9]: 484 nM | TGI [9]: > 50 µM | GI50 [10]: 225 nM | TGI [10]: > 39 µM

CC(=O)n1c(COS(C)(=O)=O)nc2ccccc21
TGI [2]: > 100 µM | TGI [3]: > 100 µM | TGI [4]: > 100 µM | TGI [5]: > 100 µM | TGI [6]: > 100 µM | TGI [7]: > 100 µM | TGI [8]: > 100 µM | TGI [9]: > 100 µM | TGI [10]: > 100 µM
